Values of other authors, collected in US20240100168A1, “LIPID COMPOSITIONS AND METHODS OF PREPARATION THEREOF” (Wake Forest University, priority 2020, published 2024).

Columns and labels:
Conditions in all cases: blocks production of pro-inflammatory eicosanoids
[1] = test system: lipoxygenases
[2] = molecular target: T1, COX2 (Homo sapiens, UniProt P35354)
T1 sequence (P35354 18-604): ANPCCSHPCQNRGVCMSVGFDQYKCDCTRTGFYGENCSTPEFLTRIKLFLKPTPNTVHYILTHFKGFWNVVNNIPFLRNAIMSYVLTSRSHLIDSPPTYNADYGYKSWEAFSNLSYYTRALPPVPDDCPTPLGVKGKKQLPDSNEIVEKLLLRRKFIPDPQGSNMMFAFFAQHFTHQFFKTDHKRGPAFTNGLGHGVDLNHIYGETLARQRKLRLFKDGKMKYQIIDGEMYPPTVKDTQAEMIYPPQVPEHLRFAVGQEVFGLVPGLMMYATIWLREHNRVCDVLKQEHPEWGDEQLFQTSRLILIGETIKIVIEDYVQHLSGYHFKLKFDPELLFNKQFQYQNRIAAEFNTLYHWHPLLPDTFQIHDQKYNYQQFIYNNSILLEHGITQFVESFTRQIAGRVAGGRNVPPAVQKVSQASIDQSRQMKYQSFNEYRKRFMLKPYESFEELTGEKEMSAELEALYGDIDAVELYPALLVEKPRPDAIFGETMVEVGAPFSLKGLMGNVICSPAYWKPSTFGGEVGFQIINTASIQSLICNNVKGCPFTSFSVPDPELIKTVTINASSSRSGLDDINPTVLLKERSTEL

[3] = molecular target: COX1 (Homo sapiens, UniProt P23219)
Chain of COX1 (P23219 24-599): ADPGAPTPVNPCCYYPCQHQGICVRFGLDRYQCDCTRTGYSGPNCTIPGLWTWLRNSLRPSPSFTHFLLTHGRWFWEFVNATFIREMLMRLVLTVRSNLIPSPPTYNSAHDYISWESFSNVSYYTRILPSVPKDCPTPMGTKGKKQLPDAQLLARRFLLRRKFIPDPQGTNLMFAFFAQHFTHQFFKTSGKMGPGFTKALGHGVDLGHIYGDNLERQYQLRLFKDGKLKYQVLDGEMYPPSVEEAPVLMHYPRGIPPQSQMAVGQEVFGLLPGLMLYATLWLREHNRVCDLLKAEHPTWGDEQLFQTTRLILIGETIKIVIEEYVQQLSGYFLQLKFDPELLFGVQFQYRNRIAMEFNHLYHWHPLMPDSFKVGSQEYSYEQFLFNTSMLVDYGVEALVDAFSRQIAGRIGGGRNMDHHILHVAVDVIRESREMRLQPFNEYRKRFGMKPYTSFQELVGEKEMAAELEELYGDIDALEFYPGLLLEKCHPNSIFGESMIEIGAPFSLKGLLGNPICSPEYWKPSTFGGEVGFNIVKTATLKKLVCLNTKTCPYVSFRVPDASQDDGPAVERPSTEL

CC/C=C\C/C=C\C/C=C\C/C=C\CCCCCCC(=O)O [ETA, 8Z,11Z,14Z,17Z-eicosatetraenoic acid]
dual inhibitor: inhibition of lipoxygenases [1] | inhibition of COX2 [2] | inhibition of COX1 [3]
